According to US11572398B2, “GLP-1 derivatives and uses thereof” (Novo Nordisk A/S, priority 2014, dated 2023):
Non-standard residues stand in square brackets, D forms with d. Residues, ends and D or L forms follow the SMILES beside them. Groups on a side chain read outwards from the residue. *: point of attachment. X2 = O=C(O)CCCCCCCCCCCCCCCCCCC(=O)NC[C@H]1CC[C@H](C(=O)N[C@@H](CCC(=O)NCCCN(CCCNC(=O)CC[C@H](NC(=O)[C@H]2CC[C@H](CNC(=O)CCCCCCCCCCCCCCCCCCC(=O)O)CC2)C(=O)O)CC(=O)*)C(=O)O)CC1; AEEA = NCCOCCOCC(=O)O; Aib = CC(C)(N)C(=O)O

Target: T1, human GLP-1 receptor (Homo sapiens, UniProt P43220)
T1 construct: expressed in transfected cells; host or cells: BHK cells (parent line BHKTS13), clone FCW467-12A; membrane preparation
T1 sequence (P43220 24-463): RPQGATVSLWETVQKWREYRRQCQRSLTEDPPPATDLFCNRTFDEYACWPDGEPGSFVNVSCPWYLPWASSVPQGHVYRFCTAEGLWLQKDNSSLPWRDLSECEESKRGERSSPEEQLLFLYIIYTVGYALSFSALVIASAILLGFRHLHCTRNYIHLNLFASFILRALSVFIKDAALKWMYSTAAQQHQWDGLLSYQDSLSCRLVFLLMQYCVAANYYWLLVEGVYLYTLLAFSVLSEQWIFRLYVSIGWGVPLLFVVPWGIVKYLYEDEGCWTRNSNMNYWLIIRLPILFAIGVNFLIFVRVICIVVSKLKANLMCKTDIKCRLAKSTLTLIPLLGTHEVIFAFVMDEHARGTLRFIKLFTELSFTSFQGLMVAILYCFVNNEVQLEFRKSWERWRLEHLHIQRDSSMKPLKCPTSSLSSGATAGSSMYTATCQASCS
Assay: GLP-1 receptor binding: competitive binding assay (125I-GLP-1, SPA) on isolated membranes at low and high HSA
Settings: high HSA (2.0% final assay concentration); read-out: High HSA IC50
Protocol: The purpose of this example is to test the receptor binding of the GLP-1 derivatives in vitro. The receptor binding is a measure of affinity of a derivative for the human GLP-1 receptor.
Each derivative is added in a series of concentrations to isolated membranes containing the human GLP-1 receptor and displacement of the labelled ligand is monitored. The receptor binding is reported as the concentration at which half of the labelled ligand is displaced from the receptor, the IC50 value.
Buffer 1 consisted of 20 mM Na-HEPES plus 10 mM EDTA and pH was adjusted to 7.4. Buffer 2 consisted of 20 mM Na-HEPES plus 0.1 mM EDTA and pH was adjusted to 7.4. Assay buffer consisted of 50 mM HEPES supplemented with 5 mM EGTA, 5 mM MgCl2, 0.005% Tween 20 and pH was adjusted to 7.4. An 8% albumin stock consisted of HSA dissolved at 8% (w/v) in assay buffer. An 0.02% albumin stock consisted of HSA dissolved at 0.02% (w/v) in assay buffer.
The cells express the human GLP-1 receptor.
The cells were grown at 5% CO2 in DMEM, 10% fetal calf serum, 1% Pen/Strep (Penicillin/Streptomycin) and 1.0 mg/ml of the selection marker G418. To make a membrane preparation the cells were grown to approximately 80% confluence. The cells were washed twice in phosphate-buffered saline and harvested. The cells were pelleted using a brief centrifugation and the cell pellet was kept on ice. […] The homogenate was centrifuged for 15 minutes. The pellet was re-suspended (homogenised) in 10 ml buffer 2 and centrifuged. This step was repeated once more. The resulting pellet was re-suspended in buffer 2 and the protein concentration was determined. The membranes were aliquoted and stored at minus 80° C.
1. […] Assay continued with step 3.
2. For the receptor binding assay in the presence of high HSA (2%) 50 μl of the 8% albumin stock was added to each well of an assay plate. Assay continued with step 3.
4. Cell membrane aliquots were thawed and diluted to their working concentration. Fifty μl were added to each well in the assay plate.
5. WGA SPA beads were suspended in assay buffer at 20 mg/ml. The suspension was diluted to 10 mg/ml in assay buffer just prior to addition to the assay plate. Fifty μl were added to each well in the assay plate.
6. […] A 25 μl aliquot was reserved for measuring total counts/well.
7. The assay plate was incubated for 2 h at 30° C.
8. The assay plate was centrifuged for 10 min.
9. The assay plate was read in a Packard TopCount NXT instrument.
The data from the TopCount instrument were transferred to GraphPad Prism software. Individual replicates were analysed using non-linear regression. IC50 values were calculated by the software and reported in nM. The reported values are averages of all of the measured values for each compound.

SMILES: CC[C@H](C)[C@H](NC(=O)[C@H](Cc1ccccc1)NC(=O)[C@H](CCC(=O)O)NC(=O)[C@H](CCCNC(=N)N)NC(=O)[C@H](C)NC(=O)[C@H](C)NC(=O)[C@H](CCC(N)=O)NC(=O)[C@H](CCC(=O)O)NC(=O)[C@H](CCC(=O)O)NC(=O)[C@H](CC(C)C)NC(=O)[C@H](Cc1ccc(O)cc1)NC(=O)[C@H](CO)NC(=O)[C@H](CO)NC(=O)[C@@H](NC(=O)[C@H](CC(=O)O)NC(=O)[C@H](CO)NC(=O)[C@@H](NC(=O)[C@H](Cc1ccccc1)NC(=O)[C@@H](NC(=O)CNC(=O)[C@H](CCC(=O)O)NC(=O)C(C)(C)NC(=O)[C@@H](N)Cc1c[nH]cn1)[C@@H](C)O)[C@@H](C)O)C(C)C)C(=O)N[C@@H](C)C(=O)N[C@@H](Cc1c[nH]c2ccccc12)C(=O)N[C@@H](CC(C)C)C(=O)N[C@H](C(=O)N[C@@H](CCCNC(=N)N)C(=O)NCC(=O)N[C@@H](CCCCNC(=O)COCCOCCNC(=O)COCCOCCNC(=O)COCCOCCNC(=O)COCCOCCNC(=O)COCCOCCNC(=O)COCCOCCNC(=O)CN(CCCNC(=O)CC[C@H](NC(=O)[C@H]1CC[C@H](CNC(=O)CCCCCCCCCCCCCCCCCCC(=O)O)CC1)C(=O)O)CCCNC(=O)CC[C@H](NC(=O)[C@H]1CC[C@H](CNC(=O)CCCCCCCCCCCCCCCCCCC(=O)O)CC1)C(=O)O)C(=O)NCC(=O)O)C(C)C [Example 30] (H-H[Aib]EGTFTSDVSSYLEEQAAREFIAWLVRGK([AEEA-AEEA-AEEA-AEEA-AEEA-AEEA-X2])G-OH; N-terminus and C-terminus assumed)
- IC50: 4.1 nM
